Test results: ChEMBL document CHEMBL1147616, “DNA binding of a short lexitropsin” (Bioorg Med Chem Lett, 2004)

System: Nucleic Acid
Assay: Compound was evaluated for its binding activity to the DNA AT-rich sites
Assay type: nucleic-acid assay

Binding activity | SMILES
0.3 µM | CC(C)n1cc(NC(=O)c2cc(NC=O)cn2C)cc1C(=O)Nc1cc(C(=O)NCCCN(C)C)n(C)c1
3 µM | CN(C)CCCNC(=O)c1cc(NC(=O)c2cc(NC(=O)c3cc(NC=O)cn3C)cn2C)cn1C
